Results taken from paper PMC4648982 (Chemistry Central Journal, 2015).
Counter-ions that a name gives are not always drawn.

Target: jack bean urease (Canavalia ensiformis, UniProt P07374)
Assay: biochemical
Procedure: Reaction mixture comprising of 25μL of enzyme (jack bean urease) (1 unit/well) solution and 55 μL of phosphate buffers (4 mM) containing 100 mM urea were incubated with 5 μL of test compounds dissolved in methanol (0.5 mM concentration) at 30 °C for 15 min in 96-well plates. Urease activity was determined by measuring ammonia production using the indophenol method as described by Weather burn. Briefly, 45 μl each phenol reagent (1 % w/v phenol and 0.005 % w/v sodium nitroprussside) and 70 μL of alkali reagent(0.5 % w/v NaOH and 0.1 % active chloride NaOCl) were added to each well. The increasing absorbance at 630 nm was measured afther 50 min, using a microplate reader (Molecular Device, USA). All reactions were performed in triplicate in a final volume of 200 μL. The results (change in absorbance per min) were processed by using softMax Pro software (molecular Device, USA). The entire assays were performed at pH 6.8. Percentage inhibitions were calculated from the formula 100 − (ODtestwell/ODcontrol) × 100. Thiourea was used as the standard inhibitor of urease.

Chain of jack bean urease (P07374 whole entry, looked up): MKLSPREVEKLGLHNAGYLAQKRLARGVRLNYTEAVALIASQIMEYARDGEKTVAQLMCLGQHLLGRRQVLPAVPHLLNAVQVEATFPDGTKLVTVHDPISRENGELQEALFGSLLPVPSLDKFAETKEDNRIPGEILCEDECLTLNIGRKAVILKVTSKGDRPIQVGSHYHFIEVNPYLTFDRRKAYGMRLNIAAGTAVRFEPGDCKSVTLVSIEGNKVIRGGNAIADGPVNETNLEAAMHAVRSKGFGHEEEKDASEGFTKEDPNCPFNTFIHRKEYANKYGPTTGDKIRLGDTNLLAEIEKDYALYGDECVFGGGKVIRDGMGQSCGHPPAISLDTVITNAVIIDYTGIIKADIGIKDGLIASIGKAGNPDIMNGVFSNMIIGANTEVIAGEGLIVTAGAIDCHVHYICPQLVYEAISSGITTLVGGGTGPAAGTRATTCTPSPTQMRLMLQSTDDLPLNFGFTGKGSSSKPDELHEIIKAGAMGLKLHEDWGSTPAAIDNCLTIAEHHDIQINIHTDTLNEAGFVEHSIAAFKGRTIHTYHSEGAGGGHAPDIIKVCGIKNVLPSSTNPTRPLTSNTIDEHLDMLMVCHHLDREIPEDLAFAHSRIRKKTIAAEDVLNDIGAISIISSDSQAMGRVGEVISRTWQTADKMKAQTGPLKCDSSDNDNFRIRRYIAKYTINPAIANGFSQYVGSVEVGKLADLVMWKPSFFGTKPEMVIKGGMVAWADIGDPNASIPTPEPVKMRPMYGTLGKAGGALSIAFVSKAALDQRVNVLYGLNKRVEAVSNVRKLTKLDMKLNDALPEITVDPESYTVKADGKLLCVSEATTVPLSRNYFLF

Row | Compound | IC50 [µM] | urease inhibitory activity in words (in vitro assay, authors' verbal grading)
1 | CC1(C)CC(=O)C(C(c2ccc(Br)cc2)c2c(O)[nH]c(=O)[nH]c2=O)=C(O)C1 (stereo not drawn) [Compound 5o, 5-((4-Bromophenyl)(2-hydroxy-4,4-dimethyl-6-oxocyclohex-1-en-1-yl)methyl)-2,6-dioxo-1,2,3,6-tetrahydropyrimidin-4-olate diethylaminium salt] | 34.6 ± 0.79 | –
2 | Cc1ccc(C(C2=C(O)CC(C)(C)CC2=O)c2c(O)[nH]c(=O)[nH]c2=O)cc1 (stereo not drawn) [Compound 5p, 5-((2-Hydroxy-4,4-dimethyl-6-oxocyclohex-1-en-1-yl)(p-tolyl)methyl)-2,6-dioxo-1,2,3,6-tetrahydropyrimidin-4-olate diethylaminium salt] | 27.4 ± 0.54 | –
3 | CC1(C)CC(=O)C(C(c2ccc(C=O)cc2)c2c(O)[nH]c(=O)[nH]c2=O)=C(O)C1 (stereo not drawn) [Compound 5q, 2-((4-Formylphenyl)(6-hydroxy-2,4-dioxo-1,2,3,4-tetrahydropyrimidin-5-yl)methyl)-5,5-dimethyl-3-oxocyclohex-1-enolate diethylaminium salt] | 41.6 ± 0.41 | –
4 | CC1(C)CC(=O)C(C(c2ccc3ccccc3c2)c2c(O)[nH]c(=O)[nH]c2=O)=C(O)C1 (stereo not drawn) [Compound 5r, 5-((2-Hydroxy-4,4-dimethyl-6-oxocyclohex-1-en-1-yl)(naphthalen-2-yl)methyl)-2,6-dioxo-1,2,3,6-tetrahydropyrimidin-4-olate diethylaminium salt] | 82.8 ± 0.72 | –
5 | CC1(C)CC(=O)C(C(C2=C(O)CC(C)(C)CC2=O)c2ccc3ccccc3c2)=C(O)C1 [Compound 5s, 2-((2-Hydroxy-4,4-dimethyl-6-oxocyclohex-1-en-1-yl)(naphthalen-2-yl)methyl)-5,5-dimethyl-3-oxocyclohex-1-enolate diethylaminium salt] | 123.2 ± 0.37 | inactivity
